Patent US12527788B2, “Defining RNA-small molecule affinity landscapes enables design of a small molecule inhibitor of an oncogenic non-coding RNA” (University of Florida Research Foundation, Incorporated, priority 2017, dated 2026)
Entries after “also recorded” stand apart in the source; their conditions may differ.

Columns and labels:
4IL1 RNA = test: Competitive binding assay with 4-FL; settings: RNA 4IL1, competitive binding with 4-FL; read-out: Binding affinity
Experimental: (§1) Competitive binding assays were completed by incubating the RNA of interest with 100 nM 4-FL and increasing concentrations of 4. The resulting curves were fit to equation 4:
(§2) [formula] where θ is the percentage of 4-FL bound, [4-FL] is the concentration of 4-FL, Kt is the dissociation constant of RNA and 4-FL, [RNA] is the concentration of RNA, Ct is the concentration of 4, Kd is the dissociation constant for 4, and A is a constant.

4IL8 RNA = test: Competitive binding assay with 4-FL; settings: RNA 4IL8, competitive binding with 4-FL; read-out: Binding affinity
Experimental: as §1, §2

pre-miR-17 = test: In vitro Dicer inhibition assay; format: biochemical, human; settings: low micromolar concentrations
Experimental: (§3) Initial studies were completed in vitro to determine if compound 4 (Targapremir-18a) inhibits Dicer processing of each miRNA separately in the miR-17-92 cluster using radioactively labeled RNA (FIG. 8A). […] Thus, inhibition of Dicer processing by 4 is selective for miR-17, -18a, and -20a and non-selective inhibition of Dicer processing is not observed.
(§4) Dicer Inhibition Assay: The template used for pre-miR-18a (5′-[…] GCTCCTTCTGGCA) (SEQ ID NO: 41) was PCR-amplified in 1×PCR Buffer, 2 μM forward primer (5′-[…]-AAGGTGCATCTAGTGCAGA) (SEQ ID NO: 42), 2 μM reverse primer (5′-[…]) (SEQ ID NO: 43), 4.25 mM MgCl2, 330 μM dNTPs, and 2 μL of Taq DNA polymerase in a 50 μL reaction. Cycling conditions were 95° C. for 30 s, 55° C. for 30 s, and 72° C. for 60 s. […] The samples was then supplemented with 1 mM ATP and 2.5 mM MgCl2. Serially diluted concentrations of 4 were added and the samples were incubated at room temperature for 15 min. Next, 0.005 units/μL of recombinant human Dicer (Genlantis) were added followed by incubation at 37° C. overnight. Reactions were stopped by adding the manufacturer's supplied stop solution.
(§5) A T1 ladder (cleaves G residues) was generated by heating the RNA in 1×RNA Sequencing Buffer (20 mM sodium citrate, pH 5.0, 1 mM EDTA, and 7 M urea) at 55° C. for 10 min followed by slowly cooling to room temperature. RNase T1 was then added to a final concentration of 3, 0.3, 0.03 units/μL and the solution was incubated at room temperature for 20 min. An RNA hydrolysis ladder was generated by incubating RNA in 1×RNA hydrolysis buffer (50 mM NaHCO3, pH 9.4, and 1 mM EDTA) at 95° C. for 5 min. In all cases, cleavage products were separated on a denaturing 15% polyacrylamide gel and imaged using a Bio-Rad PMI phosphorimager.

pre-miR-18a = test: In vitro Dicer inhibition assay; format: biochemical, human; settings: low micromolar concentrations
Experimental: as §3, §4, §5

pre-miR-19a = test: In vitro Dicer inhibition assay; format: biochemical, human
Experimental: as §3, §4, §5

pre-miR-19b = test: In vitro Dicer inhibition assay; format: biochemical, human
Experimental: as §3, §4, §5

pre-miR-20 = test: In vitro Dicer inhibition assay; format: biochemical, human; settings: low micromolar concentrations
Experimental: as §3, §4, §5

mature miR-17 = test: RT-qPCR of mature miRNA levels in DU145 cells; format: cell-based; settings: Homo sapiens, DU-145, read-out: IC50 for decrease of mature miRNA
Experimental: (§6) In particular, the mature levels of each miRNA in the cluster were studied by RT-qPCR. In agreement with our in vitro Dicer processing studies (FIG. 8A and Figures S-58-S-62), 4 decreases the amount of mature miR-17, -18a, and -20a at low micromolar concentrations with an IC50 of ˜10 µM, but has no effect on miR-19a, -19b, and -92a (FIG. 8B).
(§7) Cell Culture: DU145 cells were cultured in growth medium (Roswell Park Memorial Institute medium (RPMI) supplemented with 10% fetal bovine serum (FBS)) at 37° C. and 5% CO2
(§8) Total RNA was extracted from cells using a Quick-RNA Miniprep Kit (Zymo Research) per the manufacturer's protocol. Approximately 200 ng of total RNA was used in reverse transcription (RT) reactions, which were completed using a miScript II RT kit (Qiagen) per the manufacturer's protocol. RT-qPCR was performed on a 7900HT Fast Real Time PCR System (Applied Biosystem) using power SYBR Green Master Mix (Applied Biosystems). All primer sets were purchased from Integrated DNA Technologies, Inc. (IDT) or Eurofins (Table S1). The expression levels of mature miRNAs were normalized to U6 small nuclear RNA or 18s rRNA.

mature miR-18a = test: RT-qPCR of mature miRNA levels in DU145 cells; format: cell-based; settings: Homo sapiens, DU-145, read-out: IC50 for decrease of mature miRNA
Experimental: as §6, §7, §8

STK4 protein = test: Western blotting of STK4 in DU145 cells; format: cell-based; settings: 20 μM
Experimental: A previous study has shown that miR-18a represses serine/threonine protein kinase 4 (STK4) protein, a tumor suppressor, in prostate cancer cells and promotes tumorigenesis.^45 Thus, we studied the ability of compound 4 to de-repress STK4 and trigger apoptosis. Treatment of DU145 cells with 20 μM of 4 increases levels of STK4 by 2.5-fold (FIG. 9A).
Western Blotting: Cells were grown in 6-well plates to ˜80% confluency in complete growth medium and then incubated with 10 or 20 μM of 4 for 48 h. Total protein was extracted using M-PER Mammalian Protein Extraction Reagent (Pierce Biotechnology) per the manufacturer's recommended protocol. Extracted total protein was quantified using a Micro BCA Protein Assay Kit (Pierce Biotechnology). […]
The membrane was briefly washed with 1× Tris-buffered saline (TBS; 50 mM Tris-CI, pH 7.5. 150 mM NaCl) and blocked with 5% milk in 1×TBST (1×TBS containing 0.05% Tween-20) for 1 h at room temperature. […] After washing with 1×TBST, protein expression was quantified using SuperSignal West Pico Chemiluminescent Substrate (Pierce Biotechnology) per the manufacturer's protocol.
The membrane was then stripped using 1× Stripping Buffer (200 mM glycine, 1% Tween-20 and 0.1% SDS, pH 2.2) followed by washing in 1×TBST. […] ImageJ software from the National Institutes of Health was used to quantify band intensities.

- Kd (4IL1 RNA): 5.5 ± 1.3 µM
- Kd (4IL8 RNA): 7.5 ± 0.6 µM
- IC50 (mature miR-17): ~10 µM
- IC50 (mature miR-18a): ~10 µM
SMILES: CN1CCN(c2ccc(-c3ccc4nc(-c5cc(C(C)(C)C)c(OCCCC(=O)NCCCN=[N+]=[N-])c(C(C)(C)C)c5)[nH]c4c3)cc2)CC1 [Compound 4]
- Inhibition of Dicer processing (pre-miR-17): inhibited Dicer processing
- Inhibition of Dicer processing (pre-miR-18a): inhibits in vitro Dicer processing; also recorded: inhibited Dicer processing
- Effect on Dicer processing (pre-miR-19a): no effect
- Effect on Dicer processing (pre-miR-19b): no effect
- Inhibition of Dicer processing (pre-miR-20): inhibited Dicer processing
- Increase of STK4 levels (STK4 protein): 2.5 fold
